Tests used:
Assay in all cases: relative viability (nuclei count vs DMSO), 5 days (fraction); higher = more cells survive
[1] = compound: Cc1ccc2nc(NCCN)c3ncc(C)n3c2c1 + CS(=O)(=O)CCNCc1ccc(-c2ccc3ncnc(Nc4ccc(OCc5cccc(F)c5)c(Cl)c4)c3c2)o1 [Lapatinib] (partner 2 µM)
In short: (§1)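 Each reported value is a median over duplicate plates. It expresses relative viability: treated-well nuclei count divided by vehicle-well nuclei count. Lung cancer cell lines in 1536-well plates were dosed by pin tool a day after seeding, alone with one drug or with a fixed anchor-drug dose plus five library-drug doses (not always all listed) in √10 steps, and nuclei were counted after 5 days.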

Salubrinal + Palbociclib = compound: O=C(/C=C/c1ccccc1)NC(NC(=S)Nc1cccc2cccnc12)C(Cl)(Cl)Cl [Salubrinal] + CC(=O)c1c(C)c2cnc(Nc3ccc(N4CCNCC4)cn3)nc2n(C2CCCC2)c1=O [Palbociclib] (partner 0.5 µM)
In short: as §1

Salubrinal + Luminespib = compound: O=C(/C=C/c1ccccc1)NC(NC(=S)Nc1cccc2cccnc12)C(Cl)(Cl)Cl [Salubrinal] + CCNC(=O)c1noc(-c2cc(C(C)C)c(O)cc2O)c1-c1ccc(CN2CCOCC2)cc1 [Luminespib] (partner 0.01 µM)
In short: as §1

Salubrinal + Phenformin = compound: O=C(/C=C/c1ccccc1)NC(NC(=S)Nc1cccc2cccnc12)C(Cl)(Cl)Cl [Salubrinal] + N=C(N)NC(=N)NCCc1ccccc1 [Phenformin] (partner 250 µM)
In short: as §1

| Cell Line | relative viability ([1]; first compound 0.04 µM) | relative viability ([1]; first compound 0.1265 µM) | relative viability ([1]; first compound 0.4 µM) | relative viability ([1]; first compound 1.265 µM) | relative viability ([1]; first compound 4 µM) | relative viability (Salubrinal + Palbociclib; first compound 0.08 µM) | relative viability (Salubrinal + Palbociclib; first compound 0.253 µM) | relative viability (Salubrinal + Palbociclib; first compound 0.8 µM) | relative viability (Salubrinal + Palbociclib; first compound 2.53 µM) | relative viability (Salubrinal + Palbociclib; first compound 8 µM) | relative viability (Salubrinal + Luminespib; first compound 0.08 µM) | relative viability (Salubrinal + Luminespib; first compound 0.253 µM) | relative viability (Salubrinal + Luminespib; first compound 0.8 µM) | relative viability (Salubrinal + Luminespib; first compound 2.53 µM) | relative viability (Salubrinal + Luminespib; first compound 8 µM) | relative viability (Salubrinal + Phenformin; first compound 0.08 µM) | relative viability (Salubrinal + Phenformin; first compound 0.253 µM) | relative viability (Salubrinal + Phenformin; first compound 0.8 µM) | relative viability (Salubrinal + Phenformin; first compound 2.53 µM) | relative viability (Salubrinal + Phenformin; first compound 8 µM) |
| --- | --- | --- | --- | --- | --- | --- | --- | --- | --- | --- | --- | --- | --- | --- | --- | --- | --- | --- | --- | --- |
| EBC-1 | 0.207 | 0.201 | 0.233 | 0.179 | 0.191 | – | – | – | – | – | – | – | – | – | – | – | – | – | – | – |
| EKVX | 0.232 | 0.197 | 0.216 | 0.283 | 0.213 | 0.408 | 0.457 | 0.791 | 0.412 | 0.37 | 0.902 | 0.969 | 0.839 | 0.86 | 0.891 | 0.228 | 0.23 | 0.236 | 0.203 | 0.228 |
| EMC-BAC-2 | 0.915 | 0.875 | 0.847 | 0.918 | 0.851 | 0.493 | 0.493 | 0.541 | 0.525 | 0.524 | 1.26 | 0.835 | 1.28 | 1.16 | 1.11 | 0.471 | 0.326 | 0.601 | 0.513 | 0.493 |
| EPLC-272H | 1.04 | 0.981 | 0.777 | 0.829 | 0.977 | 0.314 | 0.295 | 0.293 | 0.288 | 0.312 | 0.382 | 0.547 | 0.156 | 0.275 | 0.164 | 0.256 | 0.236 | 0.342 | 0.259 | 0.282 |
| H3255 | 0.275 | 0.268 | 0.398 | 0.252 | 0.283 | 0.315 | 0.344 | 0.319 | 0.299 | 0.332 | 0.939 | 0.948 | 1.14 | 0.847 | 0.786 | 0.364 | 0.349 | 0.44 | 0.386 | 0.335 |
| HARA | 0.748 | 0.863 | 0.553 | 0.691 | 0.821 | 0.294 | 0.281 | 0.252 | 0.269 | 0.236 | 0.848 | 0.688 | 1.08 | 0.487 | 0.496 | 0.607 | 0.484 | 0.483 | 0.445 | 0.47 |
| HCC-15 | 0.888 | 0.811 | 0.776 | 0.75 | 0.737 | 0.832 | 0.589 | 0.844 | 0.777 | 0.703 | 0.363 | 0.294 | 0.245 | 0.468 | 0.206 | 0.524 | 0.431 | 0.533 | 0.487 | 0.391 |
| HCC-44 | 0.961 | 0.993 | 1.01 | 0.99 | 1.01 | 1.03 | 0.941 | 0.971 | 0.998 | 1 | 1.32 | 1.08 | 1.09 | 1.02 | 0.894 | 0.193 | 0.212 | 0.391 | 0.364 | 0.182 |
| HCC-78 | 1.03 | 0.738 | 0.775 | 0.861 | 0.697 | 0.462 | 0.403 | 0.488 | 0.464 | 0.539 | – | – | – | – | – | 0.736 | 0.647 | 0.898 | 0.75 | 0.679 |
